In article PMC12655637, “Design, Synthesis, and Mechanistic Study of Novel Ciprofloxacin/Thiazole Chalcone Hybrids as Potential Anticancer Agents” (Pharmaceuticals, 2025):

Tests used:
NCI/ADR-RES = experiment: NCI-60 screening, one-dose (10 µM) and five-dose, SRB; type: cell-based, human; conditions: Homo sapiens, 10 μM, Ovarian Cancer, read-out: Growth percentage
MCF7 = experiment: as above; type: cell-based, human; conditions: Homo sapiens, MCF7, 10 μM; MCF7, Breast Cancer; read-out: Growth percentage
MDA-MB-435 = experiment: as above; type: cell-based; conditions: Homo sapiens, MDA-MB-435, read-out: Growth percentage, 10 μM; MDA-MB-435, Melanoma
786−0 = experiment: as above; type: cell-based, human; conditions: Homo sapiens; 10 μM; 786−0, Renal Cancer; read-out: Growth percentage
[1] = tested on: 60 human cancer cell lines; experiment: NCI-60 screening, full panel (mean growth, MID a, ranges over all lines); conditions: Homo sapiens, read-out: Mean growth percentage
SK-MEL-28 = experiment: NCI-60 screening, one-dose (10 µM) and five-dose, SRB; type: cell-based, human; conditions: Homo sapiens; 10 μM; SK-MEL-28, Melanoma; read-out: Growth percentage
SF-295 = experiment: as above; type: cell-based, human; conditions: Homo sapiens; 10 μM; SF-295, CNS Cancer; read-out: Growth percentage
HCT-116 = experiment: as above; type: cell-based, human; conditions: Homo sapiens
UACC-257 = experiment: as above; type: cell-based, human; conditions: Homo sapiens; 10 μM; UACC-257, Melanoma; read-out: Growth percentage
K-562 = experiment: as above; type: cell-based, human; conditions: Homo sapiens, K562, 10 μM; K-562, Leukemia; read-out: Growth percentage
M14 = experiment: as above; type: cell-based, human; conditions: Homo sapiens; 10 μM; M14, Melanoma; read-out: Growth percentage
OVCAR-4 = experiment: as above; type: cell-based, human; conditions: Homo sapiens; 10 μM; OVCAR-4, Ovarian Cancer; read-out: Growth percentage
UACC-62 = experiment: as above; type: cell-based; conditions: Homo sapiens; 10 μM; UACC-62, Melanoma; read-out: Growth percentage
CCRF-CEM = experiment: as above; type: cell-based, human; conditions: Homo sapiens, 10 μM, Leukemia, read-out: Growth percentage
SNB-75 = experiment: as above; type: cell-based, human; conditions: Homo sapiens; 10 μM; SNB-75, CNS Cancer; read-out: Growth percentage
BT-549 = experiment: as above; type: cell-based; conditions: Homo sapiens; 10 μM; BT-549, Breast Cancer; read-out: Growth percentage
OVCAR-8 = experiment: as above; type: cell-based, human; conditions: Homo sapiens; 10 μM; OVCAR-8, Ovarian Cancer; read-out: Growth percentage
SNB-19 = experiment: as above; type: cell-based; conditions: Homo sapiens; 10 μM; SNB-19, CNS Cancer; read-out: Growth percentage
HOP-62 = experiment: as above; type: cell-based, human; conditions: Homo sapiens, HOP-62, 10 μM; HOP-62, Non-Small-Cell Lung Cancer; read-out: Growth percentage
MOLT-4 = experiment: as above; type: cell-based, human; conditions: Homo sapiens; 10 μM; MOLT-4, Leukemia; read-out: Growth percentage
HOP-92 = experiment: as above; type: cell-based, human; conditions: Homo sapiens; 10 μM; HOP-92, Non-Small-Cell Lung Cancer; read-out: Growth percentage
A498 = experiment: as above; type: cell-based; conditions: Homo sapiens, A498, 10 μM; A498, Renal Cancer; read-out: Growth percentage
U251 = experiment: as above; type: cell-based, human; conditions: Homo sapiens, U-251; 10 μM; U251, CNS Cancer; read-out: Growth percentage
SF-268 = experiment: as above; type: cell-based, human; conditions: Homo sapiens; 10 μM; SF-268, CNS Cancer; read-out: Growth percentage
EKVX = experiment: as above; type: cell-based, human; conditions: Homo sapiens, 10 μM, Non-Small-Cell Lung Cancer, read-out: Growth percentage
NCI-H522 = experiment: as above; type: cell-based, human; conditions: Homo sapiens; 10 μM; NCI-H522, Non-Small-Cell Lung Cancer; read-out: Growth percentage
DU-145 = experiment: as above; type: cell-based, human; conditions: Homo sapiens; 10 μM; DU-145, Prostate Cancer; read-out: Growth percentage
SF-539 = experiment: as above; type: cell-based, human; conditions: Homo sapiens, SF-539, 10 μM; SF-539, CNS Cancer; read-out: Growth percentage

| Compound | activity at 10 µM (NCI/ADR-RES) [%] | activity at 10 µM (MDA-MB-435) [%] | activity at 10 µM (786−0) [%] | activity at 10 µM [1] [%] | activity at 10 µM (SK-MEL-28) [%] | activity at 10 µM (SF-295) [%] | activity at 10 µM (UACC-257) [%] | activity at 10 µM (K-562) [%] | activity at 10 µM (M14) [%] | activity at 10 µM (OVCAR-4) [%] | activity at 10 µM (UACC-62) [%] | activity at 10 µM (CCRF-CEM) [%] | activity at 10 µM (SNB-75) [%] | activity at 10 µM (BT-549) [%] | activity at 10 µM (OVCAR-8) [%] | activity at 10 µM (SNB-19) [%] | activity at 10 µM (HOP-62) [%] | activity at 10 µM (MOLT-4) [%] | activity at 10 µM (HOP-92) [%] | activity at 10 µM (A498) [%] | also measured |
| --- | --- | --- | --- | --- | --- | --- | --- | --- | --- | --- | --- | --- | --- | --- | --- | --- | --- | --- | --- | --- | --- |
| CC(=O)c1sc(SCC(=O)N2CCN(c3cc4c(cc3F)c(=O)c(C(=O)O)cn4C3CC3)CC2)nc1C [Compound 4a, 7-(4-(2-((5-Acetyl-4-methylthiazol-2-yl)thio)acetyl)piperazin-1-yl)-1-cyclopropyl-6-fluoro-4-oxo-1,4-dihydroquinoline-3-carboxylic Acid] | 108 | 99.4 | 96.2 | 102 | 96.7 | 94.2 | 102 | 123 | 104 | 95.1 | 104 | 96.2 | 79.2 | 98.3 | 105 | 102 | 95.6 | 102 | 105 | 104 | activity at 10 µM (MCF7): 94.2%; activity at 10 µM (HCT-116; HCT-116, 10 μM, HCT-116, Colon Cancer, read-out: Growth percentage): 113%; activity at 10 µM (U251): 114%; activity at 10 µM (SF-268): 103%; activity at 10 µM (EKVX): 104%; activity at 10 µM (NCI-H522): 98.9%; activity at 10 µM (DU-145): 95.3%; activity at 10 µM (SF-539): 86.4% |
| COc1cccc(/C=C/C(=O)c2sc(SCC(=O)N3CCN(c4cc5c(cc4F)c(=O)c(C(=O)O)cn5C4CC4)CC3)nc2C)c1OC [Compound 4k, (E)-1-Cyclopropyl-7-(4-(2-((5-(3-(2,3-dimethoxyphenyl)acryloyl)-4-methylthiazol-2-yl)thio)acetyl)piperazin-1-yl)-6-fluoro-4-oxo-1,4-dihydroquinoline-3-carboxylic Acid] | 112 | 53.2 | 96.9 | 77.9 | 100 | 97.4 | 102 | 133 | 75.1 | 118 | 102 | 72 | 100 | 63.3 | 87.6 | 87.2 | -20.2 | 80.4 | 122 | 90.9 | IC50 (HCT-116; colon HCT-116): 0.34 µM; activity at 10 µM (U251): 103%; activity at 10 µM (SF-268): 109%; activity at 10 µM (EKVX): 96.9%; activity at 10 µM (NCI-H522): 104%; activity at 10 µM (DU-145): 98% |
